Literature values, collected in patent publication US20110002851A1, “Cationic Colloidal Carriers for Delivery of Active Agents to the Blood-Brain Barrier in the Course of Neuroinflammatory Diseases” (MediGene AG, priority 2006, published 2011).

Key:
T cell = conditions: micellar paclitaxel formulation
MMP-9 = conditions: LPS-stimulated astrocytes and microglia

Structure (SMILES)	T cell proliferation (T cell)	expression of MMP-9 (MMP-9)
CC(=O)O[C@H]1C(=O)[C@@]2(C)[C@H]([C@H](OC(=O)c3ccccc3)[C@]3(O)C[C@H](OC(=O)[C@H](O)[C@@H](NC(=O)c4ccccc4)c4ccccc4)C(C)=C1C3(C)C)[C@]1(OC(C)=O)CO[C@@H]1C[C@@H]2O (racemic) [paclitaxel]	dose-dependent suppression	–
Cc1cn([C@H]2C[C@H](N=[N+]=[N-])[C@@H](CO)O2)c(=O)[nH]c1=O [AZT, zidovudine]	–	dose-dependently inhibited
CC(C)(C)NC(=O)[C@@H]1CN(Cc2cccnc2)CCN1C[C@@H](O)C[C@@H](Cc1ccccc1)C(=O)N[C@H]1c2ccccc2C[C@H]1O [IDV, indinavir]	–	dose-dependently inhibited
